Laboratory results taken from patent US20090220562A1, “Osteogenic and anti-adipogenic oxysterols” (priority 2005, published 2009).

Key:
Assay type in all cases: cell-based, mouse
osteocalcin mRNA = assay: Northern blotting for osteocalcin mRNA in M2-10B4 cells; conditions: for synergy with oxysterols in induction of osteocalcin: BMP 50 ng/ml with 22S+20S (SS, 2.5 μM)
Protocol: RNA isolation and Northern blot analysis—Following treatment of cells under appropriate experimental conditions, total RNA was isolated using the RNA isolation kit from Stratagene (La Jolla, Calif., U.S.A.). Total RNA ([…]) was run on a 1% agarose/formaldehyde gel and transferred to Duralon-UV membranes (Strategene, CA, U.S.A.) and cross-linked with UV light. The membranes were hybridized overnight at 60 degree C. with ^32P-labeled mouse osteocalcin cDNA probe, mouse lipoprotein lipase (LPL), mouse adipocyte protein 2 (aP^2) PCR-generated probes, human 28S or 18S rRNA probes obtained from Geneka Biotechnology (Montreal, Quebec, Canada) and Maxim Biotech (San Francisco, Calif., U.S.A.), respectively. The PCR products were generated using primer sets synthesized by Invitrogen (Carlsbad, Calif., U.S.A.) with the following specifications: mouse aP2 gene (accession no. M13261); sense (75-95) 5′-[…]-3′, antisense (362-383) 5′-[…]-3′, generating a PCR product of 309 base pairs. Mouse LPL (accession no. XM—134193); sense (1038-1058) 5′-[…]-3′, antisense (1816-1836) 5′-[…]-3′, generating a PCR product of 799 base pairs. The PCR products were gel-purified and sequenced by the UCLA sequencing core, showing the highest similarity to their respective GenBank entries. Following hybridization, the blots were washed twice at room temperature with 2×SSC+0.1% SDS, and then twice at 60 degree C. with 0.5×SSC+0.1% SDS, and exposed to X-ray film. The extent of gene induction was determined by densitometry.
After 4 and 8 days, total RNA from duplicate samples was isolated and analyzed for osteocalcin (Osc) and 28S rRNA expression by Northern blotting as described. FIG. 3E is a radiogram of Northern blotting for osteocalcin mRNA in M2 cells exposed to a control or combination of oxysterols for 4 or 8 days. FIG. 3F is a bar graph depicting the relative demsometric units of osteocalcin mRNA in M2 cells exposed to a control or combination of oxysterols for 4 -or 8 days. Data from densitometric analysis of the Northern blot is shown in (F) as the average of duplicate samples, normalized to 28S rRNA.
(§1) Next, a combination of 22R and 20S oxysterols (RS, 2.5 μM each) were added in the presence or absence of SC as indicated. After 3 days, ALP activity was measured as described earlier. […] (B) M2 cells were treated as described in (A) and after 10 days matrix mineralization in cultures was quantified by a ^45Ca incorporation assay as described earlier. […] (C) M2 cells were pretreated with 20 μM SC for 4 hours, followed by the addition of RS in the presence or absence of SC as described above. After 8 days, total RNA was isolated and analyzed for osteocalcin (Osc) and […] expression by Northern blotting as previously described. Data from densitometric analysis of the Northern blot is shown in (D) as the average of duplicate samples, normalized to 18S rRNA. (E) M2 cells at confluence were pretreated for 2 hours with control vehicle (C), or PLA2 inhibitors ACA (25 μM) and AACOCF3 (AAC, 20 μM), in osteogenic medium. Next, a combination of 22R and 20S oxysterols (RS, 2.5 μM) was added in the presence or absence of the inhibitors as indicated. After 3 days, ALP activity was measured as previously described. […] (F) M2 cells were treated as described in (E). After 10 days, matrix mineralization in cultures was quantified using a ^45Ca incorporation assay as previously described. Results from a representative of three experiments are shown, reported as the mean of quadruplicate determinations ±SD, normalized to protein concentration (p<0.01 for RS vs. RS+ACA and RS+AAC).
ALP activity was measured after 2 days, as described. […] (B) M2 cells were treated as described in (A). After 10 days, matrix mineralization in cultures was quantified using a ^45Ca incorporation assay as described. […] (C) M2 cells were treated under similar conditions as those described above. […]

marrow stromal cells = assay: Osteogenic differentiation of marrow stromal cells (marker not specified: ALP activity, osteocalcin mRNA, mineral formation)
Protocol: The purpose of the study was to identify other osteogenic and anti-adipogenic oxysterols based on the chemical structure of previously identified oxysterols. The ability of such candidate oxysterol molecules to induce the formation of osteoblastic cells in cultures of marrow stromal cells (which are progenitors of osteoblastic cells that make bone) were tested. In order to assess osteogenic differentiation of cells, one or more markers of osteogenic differentiation were measured in untreated cells and cells treated with the test oxysterols. These markers included: alkaline phosphatase activity, osteocalcin mRNA expression and mineral formation in cultures of marrow stromal cells. Activation of either one or more than one marker by a single or combination oxysterols is indicative of their osteogenic property.

[1] = system: M2-10B4 marrow stromal cells; assay: Alkaline phosphatase (ALP) activity assay on whole cell extracts of M2-10B4 marrow stromal cells; conditions: for effect on oxysterol-induced alkaline phosphatase activity: 22R+20S (RS), pretreatment with SC-560 10 μM, ACA 25 μM, AACOCF3 20 μM or PD98059 20 μM, 3 days; for reversal of the effects of COX-1 and PLA2 inhibitors on oxysterol-induced alkaline phosphatase activity: 1 μM PGE2, 25 μM arachidonic acid, data not shown
Protocol: (§2) Cells: M2-10B4 mouse marrow stromal cell line obtained from American Type Culture Collection (ATCC, Rockville, Md., U.S.A.) was derived from bone marrow stromal cells of a (C57BL/6J x C3H/HeJ) Fl mouse, and support human and murine myelopoiesis in long-term cultures (as per ATCC) and have the ability to differentiate into osteoblastic and adipocytic cells. Unless specified, these cells were cultured in RPMI 1640 containing 10% heat-inactivated FBS, and supplemented with 1 mM sodium pyruvate, 100 U/ml penicillin, and 100 U/ml streptomycin (all from Irvine Scientific).
Cells were always treated at 90% confluence. […]
as §1, with “Results from a representative of three experiments are shown, reported as the mean of quadruplicate determinations ±SD, normalized to protein concentration (p<0.01 for RS vs. RS+ACA and RS+AAC).” left out

[2] = system: M2-10B4 marrow stromal cells; assay: Matrix mineralization (45Ca incorporation assay, von Kossa staining) in M2-10B4 marrow stromal cells; conditions: for effect on oxysterol-induced mineralization: 22R+20S (RS), SC-560 10 μM, ACA 25 μM, AACOCF3 20 μM or PD98059 20 μM, 10 days
Protocol: as §2
Von Kossa and oil red O staining—Matrix mineralization in cell monolayers was detected by silver nitrate staining as previously described. Oil red O staining for detection of adipocytes was performed as previously described.
^45Ca incorporation assay—Matrix mineralization in cell monolayers was quantified using the ^45Ca incorporation assay as previously described.
After 14 days, mineralization was identified by a von Kossa staining, which appears black. FIG. 3C is a depiction of von Kossa staining of M2 cells exposed to various conditions.
After 14 days, matrix mineralization in cultures was quantified using a ^45Ca incorporation assay.
as §1
(A) M2 cells at confluence were pretreated for four hours with RPMI containing 1% FBS, followed by treatment with control vehicle or 5 μM 20S oxysterol for 1, 4, or 8 hours. Next total cell extracts were prepared and analyzed for levels of native or phosphorylated ERK (pERK) using specific antibodies as previously described. Data from a representative of four experiments are shown, each treatment shown in duplicate samples. (B) M2 cells at confluence were pretreated for 2 hours with control vehicle (C) or 20 μM PD98059 (PD) in osteogenic medium as previously described. Next, a combination of 22R and 20S oxysterols (RS, 5 μM each) were added to appropriate wells as indicated. After 10 days of incubation, matrix mineralization was quantified by the ^45Ca incorporation assay as previously described. […] (C) M2 cells at confluence were pretreated for 2 hours with 20 µM PD98059 (PD) in RPMI containing 5% FBS. Next, the cells were treated with control vehicle (C), 10 μM troglitazone (Tro), or 10 μM of 20S or 22S oxysterols, alone or in combination as indicated. After 10 days, adipocytes were visualized by oil Red O staining and quantified by light microscopy as previously described. […]

[3] = pretreatment, cyclopamine 1-10 μM, DKK-1 1 μg/ml

CC(C)CCC[C@@H](C)[C@H]1CC[C@H]2[C@@H]3[C@H](O)C=C4C[C@@H](O)CC[C@]4(C)[C@H]3CC[C@]12C [7alpha-hydroxycholesterol, reference compound]
levels of osteocalcin mRNA relative to the control (osteocalcin mRNA; 5 μM, eight days, M2-10B4): did not appear to significantly affect

C[C@@H](CO)CCC[C@@H](C)[C@H]1CC[C@H]2[C@@H]3CC=C4C[C@@H](O)CC[C@]4(C)[C@H]3CC[C@]12C [26-hydroxycholesterol]
osteogenic property, alone or in combination with originally described oxysterols (marrow stromal cells): osteoinductive

CCCCC/C=C\C/C=C\C/C=C\C/C=C\CCCC(=O)C(F)(F)F [AACOCF3, reference compound]
effect on oxysterol-induced alkaline phosphatase activity [1]: inhibited | effect on oxysterol-induced mineralization [2]: inhibited

CCCCCc1ccc(/C=C/C(=O)Nc2ccccc2C(=O)O)cc1 [ACA, reference compound]
effect on oxysterol-induced alkaline phosphatase activity [1]: inhibited | effect on oxysterol-induced mineralization [2]: inhibited

CS(=O)(=O)Nc1ccc([N+](=O)[O-])cc1OC1CCCCC1 [NS-398, reference compound]
inhibition of the osteogenic effects of oxysterol combinations (marrow stromal cells; 22R+20S and 22S+20S, SC-560 1-20 μM, NS-398 20 μM (highest non-toxic dose)): negligible inhibitory effects

COc1cccc(-c2cc(=O)c3ccccc3o2)c1N [PD98059, reference compound]
effect on oxysterol-induced mineralization [2]: inhibited

CCCCC[C@H](O)/C=C/[C@H]1[C@H](O)CC(=O)[C@@H]1C/C=C\CCCC(=O)O [PGE2, prostaglandin E2, reference compound]
reversal of the effects of COX-1 and PLA2 inhibitors on oxysterol-induced alkaline phosphatase activity [1]: reversed

COc1ccc(-n2nc(C(F)(F)F)cc2-c2ccc(Cl)cc2)cc1 [SC-560, reference compound]
effect on oxysterol-induced mineralization [2]: inhibited | effect on oxysterol-induced osteocalcin gene expression (osteocalcin mRNA; 22R+20S (RS), SC-560 20 μM, 8 days, PD98059 (data not shown)): inhibited

O=S(=O)(c1ccccc1)N(CC(F)(F)F)c1ccc(C(O)(C(F)(F)F)C(F)(F)F)cc1 [TO-901317, reference compound]
effect on alkaline phosphatase activity ([1]; 1-10 μM): dose-dependent inhibition | induction of mineralization ([2]; after 10 days): did not induce | induction of osteocalcin gene expression (osteocalcin mRNA; after 10 days): did not induce

CCCCC/C=C\C/C=C\C/C=C\C/C=C\CCCC(=O)O [arachidonic acid, reference compound]
reversal of the effects of COX-1 and PLA2 inhibitors on oxysterol-induced alkaline phosphatase activity [1]: reversed

C[C@]12CC[C@@H]3c4ccc(O)cc4CC[C@H]3[C@@H]1CC[C@@H]2O [beta-estradiol, reference compound]
osteogenic properties (marrow stromal cells): did not have any osteogenic properties

C[C@]12CC[C@H]3[C@@H](CCC4=C[C@H](O)CC[C@@H]43)[C@@H]1CC[C@@H]2O [estren, reference compound]
osteogenic properties (marrow stromal cells): did not have any osteogenic properties

BMP14: bone morphogenic protein 14
synergy with oxysterols in induction of alkaline phosphatase activity [1]: synergistically induced | synergy with oxysterols in induction of mineralization [2]: synergistically induced | synergy with oxysterols in induction of osteocalcin (osteocalcin mRNA; eight days): synergistic induction

DKK-1: Wnt signaling inhibitor
effect on SS-induced alkaline phosphatase (ALP) activity [1, 3]: inhibited | effect on SS-induced mineralization [2, 3]: inhibited | effect on SS-induced osteocalcin mRNA expression (osteocalcin mRNA; [3]): inhibited

B1: BMP7: bone morphogenic protein 7 (protein, UniProt P18075 293-431, looked up)
Bone morphogenetic protein 7: STGSKQRSQNRSKTPKNQEALRMANVAENSSSDQRQACKKHELYVSFRDLGWQDWIIAPEGYAAYYCEGECAFPLNSYMNATNHAIVQTLVHFINPETVPKPCCAPTQLNAISVLYFDDSSNVILKKYRNMVVRACGCH
synergy with oxysterols in induction of alkaline phosphatase activity [1]: synergistically induced | synergy with oxysterols in induction of mineralization [2]: synergistically induced | synergy with oxysterols in induction of osteocalcin (osteocalcin mRNA; eight days): synergistic induction
